Experimental data from PMC9921851, “Synthesis and Preclinical Evaluation of Three Novel ^68Ga-Labeled Bispecific PSMA/FAP-Targeting Tracers for Prostate Cancer Imaging” (Molecules, 2023).

How the values were obtained:
[1] = test system: PSMA-expressing LNCaP tumor xenografts; assay: Ex vivo biodistribution in LNCaP tumor-bearing mice; details: LNCaP tumor-bearing mice, 1 h post injection, mean ± SD, n = 4
Description: Biodistribution studies were conducted at 1 h post injection with ^68Ga-labeled AV01017, AV01030, AV01038, HTK03041, and FAPI-04 in LNCaP tumor-bearing mice (Figure 5 and Table S4, Supplementary Materials). The results were consistent with the observation from their PET images. Tumor uptake values for [^68Ga]Ga-AV01017, [^68Ga]Ga-AV01030, [^68Ga]Ga-AV01038, [^68Ga]Ga-HTK03041, and [^68Ga]Ga-FAPI-04 were 4.38 ± 0.55, 5.17 ± 0.51, 4.25 ± 0.86, 23.1 ± 6.11, and 3.15 ± 1.43 %ID/g, respectively. […] Although not statistically significant, the bispecific tracers with a longer linker tend to have a higher blood uptake value (9.24 ± 1.55 %ID/g for [^68Ga]Ga-AV01017; 7.07 ± 0.31%ID/g for [^68Ga]Ga-AV01038; 5.75 ± 0.59 %ID/g for [^68Ga]Ga-AV01030) and a lower tumor-to-blood ratio (0.48 ± 0.11 for [^68Ga]Ga-AV01017; 0.60 ± 0.13 for [^68Ga]Ga-AV01038; 0.89 ± 0.03 for [^68Ga]Ga-AV01030).
(§1) Imaging and biodistribution studies were performed using male NOD.Cg-Rag1tm1Mom Il2rgtm1Wjl/SzJ (NRG) mice following previously published procedures. The experiments were conducted according to the guidelines established by the Canadian Council on Animal Care and approved by Animal Ethics Committee of the University of British Columbia. The mice were briefly sedated by inhalation of 2.5% isoflurane in oxygen, and 100 µL LNCaP (2 × 10^5 cells) or HEK293T:hFAP (8.5 × 10^6 cells) cells were inoculated subcutaneously behind the left shoulder. When the tumor grew to 5–8 mm in diameter over 3–4 weeks and 4–5 weeks for HEK293T:hFAP and LNCaP tumors, respectively, the mice were used for PET/CT imaging and biodistribution studies.
(§2) For biodistribution studies, the mice were injected with the radiotracer (~2–4 MBq) as described above. At 1 h post injection, the mice were euthanized by CO2 inhalation. Blood was withdrawn by cardiac puncture, and organs/tissues of interest were collected, weighed, and counted using a Perkin Elmer (Waltham, MA, USA) Wizard2 2480 automatic gamma counter.

[2] = test system: FAP-expressing HEK293T:hFAP tumor xenografts; assay: Ex vivo biodistribution in HEK293T:hFAP tumor-bearing mice; details: 1 h post injection, mean ± SD, n = 4
Description: Biodistribution studies were also conducted at 1 h post injection with [^68Ga]Ga-AV01017, [^68Ga]Ga-AV01030, [^68Ga]Ga-AV01038, [^68Ga]Ga-HTK03041, and [^68Ga]Ga-FAPI-04 in HEK293T:hFAP tumor-bearing mice (Figure 6 and Table S5, Supplementary Materials). Tumor uptake values for [^68Ga]Ga-AV01017, [^68Ga]Ga-AV01030, [^68Ga]Ga-AV01038, [^68Ga]Ga-HTK03041, and [^68Ga]Ga-FAPI-04 were 2.99 ± 0.37, 3.69 ± 0.81, 3.64 ± 0.83, 0.62 ± 0.19, and 12.5 ± 2.00 %ID/g, respectively. There was a very low tumor uptake in mice injected with [^68Ga]Ga-HTK03041, showing very minimal FAP expression in this tumor model. The uptake levels of these tracers on the major organs and tissues are consistent with the trends observed in the LNCaP tumor-baring mice (Figure 5 and Supplemental Table S4).
as §1, §2

N#C[C@@H]1CC(F)(F)CN1C(=O)CNC(=O)c1ccnc2ccc(OCCCc3cn(CC(=O)N[C@@H](CCCCNC(=O)CN4CCN(CC(=O)[O-])CCN(CC(=O)[O-])CCN(CC(=O)[O-])CC4)C(=O)NCC(=O)NC[C@H]4CC[C@H](C(=O)N[C@@H](Cc5c6ccccc6cc6ccccc56)C(=O)NCCCC[C@H](NC(=O)N[C@@H](CCC(=O)O)C(=O)O)C(=O)O)CC4)nn3)cc12.[68Ga+3] [[^68Ga]Ga-AV01017]
Adrenal glands uptake [1]: 6.24 ± 2.31 %ID/g | Blood uptake [1]: 9.24 ± 1.55 %ID/g | Bone uptake [1]: 4.05 ± 0.86 %ID/g | Brain uptake [1]: 0.18 ± 0.01 %ID/g | Fat uptake [1]: 1.01 ± 0.48 %ID/g | Heart uptake [1]: 4.04 ± 0.28 %ID/g | Kidneys uptake [1]: 30.9 ± 6.89 %ID/g | LNCaP tumor uptake [1]: 4.38 ± 0.55 %ID/g | Lacrimal glands uptake [1]: 0.13 ± 0.27 %ID/g | Large Intestine uptake [1]: 1.76 ± 0.21 %ID/g | Liver uptake [1]: 2.24 ± 0.34 %ID/g | Lungs uptake [1]: 3.76 ± 0.66 %ID/g | Muscle uptake [1]: 1.91 ± 0.43 %ID/g | Pancreas uptake [1]: 5.38 ± 1.29 %ID/g | Salivary glands uptake [1]: 5.98 ± 4.00 %ID/g | Seminal vesicle uptake [1]: 1.12 ± 0.21 %ID/g | Small Intestine uptake [1]: 2.47 ± 0.48 %ID/g | Spleen uptake [1]: 3.73 ± 1.19 %ID/g | Stomach uptake [1]: 0.64 ± 0.11 %ID/g | Testes uptake [1]: 0.69 ± 0.06 %ID/g | Thyroid uptake [1]: 12.7 ± 2.72 %ID/g | Tumor/blood uptake ratio [1]: 0.48 ± 0.11 | Tumor/bone uptake ratio [1]: 1.10 ± 0.15 | Tumor/kidney uptake ratio [1]: 0.14 ± 0.03 | Tumor/muscle uptake ratio [1]: 2.35 ± 0.35 | Adrenal glands uptake [2]: 4.06 ± 0.27 %ID/g | Blood uptake [2]: 11.9 ± 3.37 %ID/g | Bone uptake [2]: 5.26 ± 0.32 %ID/g | Brain uptake [2]: 0.21 ± 0.07 %ID/g | Fat uptake [2]: 0.61 ± 0.13 %ID/g | HEK293T:hFAP tumor uptake [2]: 2.99 ± 0.37 %ID/g | Heart uptake [2]: 4.63 ± 0.42 %ID/g | Kidneys uptake [2]: 19.3 ± 2.25 %ID/g | Lacrimal gland uptake [2]: 1.34 ± 0.50 %ID/g | Large Intestine uptake [2]: 1.44 ± 0.20 %ID/g | Liver uptake [2]: 3.40 ± 0.64 %ID/g | Lungs uptake [2]: 5.50 ± 1.26 %ID/g | Muscle uptake [2]: 1.63 ± 0.06 %ID/g | Pancreas uptake [2]: 3.80 ± 0.25 %ID/g | Salivary glands uptake [2]: 6.43 ± 1.03 %ID/g | Seminal vesicle uptake [2]: 1.15 ± 0.33 %ID/g | Small Intestine uptake [2]: 2.14 ± 0.65 %ID/g | Spleen uptake [2]: 3.63 ± 3.60 %ID/g | Stomach uptake [2]: 0.63 ± 0.08 %ID/g | Testes uptake [2]: 1.15 ± 0.86 %ID/g | Thyroid uptake [2]: 10.7 ± 2.15 %ID/g | Tumor/blood uptake ratio [2]: 0.18 ± 0.08 | Tumor/bone uptake ratio [2]: 0.44 ± 0.12 | Tumor/kidney uptake ratio [2]: 0.11 ± 0.03 | Tumor/muscle uptake ratio [2]: 1.25 ± 0.17
